Eight cell lines from the supplement of paper PMC10307832 can be followed below.

Holding throughout (assay): relative viability (nuclei count vs DMSO), 5 days (fraction); higher = more cells survive
Compound in the assay “Irinotecan + Lapatinib”: CCc1c2c(nc3ccc(OC(=O)N4CCC(N5CCCCC5)CC4)cc13)-c1cc3c(c(=O)n1C2)COC(=O)[C@]3(O)CC [Irinotecan] + CS(=O)(=O)CCNCc1ccc(-c2ccc3ncnc(Nc4ccc(OCc5cccc(F)c5)c(Cl)c4)c3c2)o1 [Lapatinib] (partner 2 µM)
The gist of the method: (§1)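 For relative viability, nuclei counts in treated wells were divided by those in vehicle wells. Lung cancer cell lines had been pin-tool dosed in 1536-well plates the day after seeding and cultured for 5 days, then fixed and stained in one step (final 0.05% Triton X-100, 1% formaldehyde, 1 ug/ml Hoechst) and imaged at 4×. Doses were one drug alone or a fixed anchor-drug dose plus five library-drug doses (not always all listed) in √10 steps, and values are duplicate-plate medians.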

Compound in the assay “RU-SKI 43 + Palbociclib”: CC[C@@H](C)CNCC(=O)N1CCC2=C([C@@H]1COC3=CC=CC(=C3)C)C=CS2 [RU-SKI 43] + CC(=O)c1c(C)c2cnc(Nc3ccc(N4CCNCC4)cn3)nc2n(C2CCCC2)c1=O [Palbociclib] (partner 0.5 µM)
The gist of the method: as §1

Compound in the assay “Irinotecan + Foretinib”: CCc1c2c(nc3ccc(OC(=O)N4CCC(N5CCCCC5)CC4)cc13)-c1cc3c(c(=O)n1C2)COC(=O)[C@]3(O)CC [Irinotecan] + COc1cc2c(Oc3ccc(NC(=O)C4(C(=O)Nc5ccc(F)cc5)CC4)cc3F)ccnc2cc1OCCCN1CCOCC1 [Foretinib] (partner 0.25 µM)
The gist of the method:
as §1

Compound in the assay “Irinotecan + Bortezomib”: CCc1c2c(nc3ccc(OC(=O)N4CCC(N5CCCCC5)CC4)cc13)-c1cc3c(c(=O)n1C2)COC(=O)[C@]3(O)CC [Irinotecan] + CC(C)C[C@H](NC(=O)[C@H](Cc1ccccc1)NC(=O)c1cnccn1)B(O)O [Bortezomib] (partner 0.002 µM)
The gist of the method: as §1

Consider NCI-H1915, for which the relative viability with Irinotecan + Lapatinib (first compound 0.6325 µM) was 0.434; with Irinotecan + Lapatinib (first compound 2 µM) it was 0.373; in the assay with Irinotecan + Lapatinib (first compound 6.325 µM), 0.147; with Irinotecan + Lapatinib (first compound 20 µM), 0.15; with RU-SKI 43 + Palbociclib (first compound 0.1 µM), 0.51; with RU-SKI 43 + Palbociclib (first compound 0.3162 µM) it was 0.543. The relative viability with RU-SKI 43 + Palbociclib (first compound 1 µM) came out at 0.559; with RU-SKI 43 + Palbociclib (first compound 3.162 µM), 0.541; in the assay with RU-SKI 43 + Palbociclib (first compound 10 µM) it was 0.525; with Irinotecan + Foretinib (first compound 0.6325 µM) it was 0.45; in the assay with Irinotecan + Foretinib (first compound 2 µM) it was 0.283; with Irinotecan + Foretinib (first compound 6.325 µM) it was 0.192. In addition, the relative viability came out at 0.2 with Irinotecan + Foretinib (first compound 20 µM); 0.537 with Irinotecan + Bortezomib (first compound 0.6325 µM); 0.445 with Irinotecan + Bortezomib (first compound 2 µM); 0.24 with Irinotecan + Bortezomib (first compound 6.325 µM); 0.148 with Irinotecan + Bortezomib (first compound 20 µM).

In the case of NCI-H1975, the relative viability with Irinotecan + Lapatinib (first compound 0.6325 µM) came out at 0.86; with Irinotecan + Lapatinib (first compound 2 µM), 0.689; in the assay with Irinotecan + Lapatinib (first compound 6.325 µM), 0.302; with Irinotecan + Lapatinib (first compound 20 µM), 0.14; with RU-SKI 43 + Palbociclib (first compound 0.1 µM), 0.642; with RU-SKI 43 + Palbociclib (first compound 0.3162 µM), 0.626. Further, the relative viability was 0.669 with RU-SKI 43 + Palbociclib (first compound 1 µM); 0.541 with RU-SKI 43 + Palbociclib (first compound 3.162 µM); 0.352 with RU-SKI 43 + Palbociclib (first compound 10 µM); 0.816 with Irinotecan + Foretinib (first compound 0.6325 µM); 0.964 in the assay with Irinotecan + Foretinib (first compound 2 µM); 0.385 in the assay with Irinotecan + Foretinib (first compound 6.325 µM). The relative viability in the assay with Irinotecan + Foretinib (first compound 20 µM) stood at 0.158; with Irinotecan + Bortezomib (first compound 0.6325 µM) it was 0.294; with Irinotecan + Bortezomib (first compound 2 µM) it was 0.31; with Irinotecan + Bortezomib (first compound 6.325 µM), 0.278; in the assay with Irinotecan + Bortezomib (first compound 20 µM) it was 0.129.

NCI-H1993: the relative viability with Irinotecan + Lapatinib (first compound 0.6325 µM) was found to be 0.802; with Irinotecan + Lapatinib (first compound 2 µM) it was 0.76; with Irinotecan + Lapatinib (first compound 6.325 µM) it was 0.671; with Irinotecan + Lapatinib (first compound 20 µM), 0.458; with RU-SKI 43 + Palbociclib (first compound 0.1 µM), 0.611; with RU-SKI 43 + Palbociclib (first compound 0.3162 µM) it was 0.727. The relative viability amounted to 0.697 with RU-SKI 43 + Palbociclib (first compound 1 µM); 0.748 with RU-SKI 43 + Palbociclib (first compound 3.162 µM); 0.613 in the assay with RU-SKI 43 + Palbociclib (first compound 10 µM); 0.769 in the assay with Irinotecan + Foretinib (first compound 0.6325 µM); 0.663 with Irinotecan + Foretinib (first compound 2 µM); 0.706 with Irinotecan + Foretinib (first compound 6.325 µM). Also, the relative viability was determined as 0.644 with Irinotecan + Foretinib (first compound 20 µM); 1.1 with Irinotecan + Bortezomib (first compound 0.6325 µM); 0.968 in the assay with Irinotecan + Bortezomib (first compound 2 µM); 0.613 with Irinotecan + Bortezomib (first compound 6.325 µM); 0.399 with Irinotecan + Bortezomib (first compound 20 µM).

On to NCI-H2009, for which the relative viability in the assay with Irinotecan + Lapatinib (first compound 0.6325 µM) stood at 0.308; with Irinotecan + Lapatinib (first compound 2 µM) it was 0.445; with Irinotecan + Lapatinib (first compound 6.325 µM), 0.294; in the assay with Irinotecan + Lapatinib (first compound 20 µM), 0.12; with RU-SKI 43 + Palbociclib (first compound 0.1 µM), 0.181; with RU-SKI 43 + Palbociclib (first compound 0.3162 µM), 0.214. The relative viability in the assay with RU-SKI 43 + Palbociclib (first compound 1 µM) was 0.219; with RU-SKI 43 + Palbociclib (first compound 3.162 µM), 0.229; with RU-SKI 43 + Palbociclib (first compound 10 µM), 0.194; in the assay with Irinotecan + Foretinib (first compound 0.6325 µM) it was 0.973; with Irinotecan + Foretinib (first compound 2 µM) it was 0.688; with Irinotecan + Foretinib (first compound 6.325 µM) it was 0.311. In addition, the relative viability with Irinotecan + Foretinib (first compound 20 µM) was 0.16; with Irinotecan + Bortezomib (first compound 0.6325 µM), 0.294; in the assay with Irinotecan + Bortezomib (first compound 2 µM) it was 0.515; with Irinotecan + Bortezomib (first compound 6.325 µM), 0.228; with Irinotecan + Bortezomib (first compound 20 µM) it was 0.0808.

On to NCI-H2023, for which the relative viability with Irinotecan + Lapatinib (first compound 0.6325 µM) was 0.484; in the assay with Irinotecan + Lapatinib (first compound 2 µM), 0.408; with Irinotecan + Lapatinib (first compound 6.325 µM) it was 0.129; with Irinotecan + Lapatinib (first compound 20 µM), 0.045; in the assay with RU-SKI 43 + Palbociclib (first compound 0.1 µM) it was 0.383; in the assay with RU-SKI 43 + Palbociclib (first compound 0.3162 µM) it was 0.385. Moreover, the relative viability with RU-SKI 43 + Palbociclib (first compound 1 µM) was determined as 0.444; with RU-SKI 43 + Palbociclib (first compound 3.162 µM), 0.451; with RU-SKI 43 + Palbociclib (first compound 10 µM), 0.311; with Irinotecan + Foretinib (first compound 0.6325 µM), 0.832; in the assay with Irinotecan + Foretinib (first compound 2 µM), 0.842; with Irinotecan + Foretinib (first compound 6.325 µM) it was 0.295. Further, the relative viability with Irinotecan + Foretinib (first compound 20 µM) stood at 0.116; in the assay with Irinotecan + Bortezomib (first compound 0.6325 µM), 0.435; in the assay with Irinotecan + Bortezomib (first compound 2 µM), 0.686; with Irinotecan + Bortezomib (first compound 6.325 µM), 0.162; in the assay with Irinotecan + Bortezomib (first compound 20 µM) it was 0.0682.

Take NCI-H2085: the relative viability in the assay with Irinotecan + Lapatinib (first compound 0.6325 µM) is 0.592; with Irinotecan + Lapatinib (first compound 2 µM), 0.608; with Irinotecan + Lapatinib (first compound 6.325 µM), 0.473; with Irinotecan + Lapatinib (first compound 20 µM), 0.515; with RU-SKI 43 + Palbociclib (first compound 0.1 µM), 0.514; with RU-SKI 43 + Palbociclib (first compound 0.3162 µM) it was 0.444. Moreover, the relative viability with RU-SKI 43 + Palbociclib (first compound 1 µM) came to 0.467; with RU-SKI 43 + Palbociclib (first compound 3.162 µM) it was 0.48; with RU-SKI 43 + Palbociclib (first compound 10 µM) it was 0.461; with Irinotecan + Foretinib (first compound 0.6325 µM), 1.06; with Irinotecan + Foretinib (first compound 2 µM), 0.775; with Irinotecan + Foretinib (first compound 6.325 µM), 0.464. Besides, the relative viability in the assay with Irinotecan + Foretinib (first compound 20 µM) came out at 0.54; in the assay with Irinotecan + Bortezomib (first compound 0.6325 µM) it was 0.847; with Irinotecan + Bortezomib (first compound 2 µM) it was 1.01; in the assay with Irinotecan + Bortezomib (first compound 6.325 µM) it was 0.535; with Irinotecan + Bortezomib (first compound 20 µM), 0.494.

Turning to NCI-H2087, the relative viability with Irinotecan + Lapatinib (first compound 0.6325 µM) was determined as 0.299; with Irinotecan + Lapatinib (first compound 2 µM), 0.3; in the assay with Irinotecan + Lapatinib (first compound 6.325 µM) it was 0.168; with Irinotecan + Lapatinib (first compound 20 µM), 0.205; in the assay with RU-SKI 43 + Palbociclib (first compound 0.1 µM), 0.253; with RU-SKI 43 + Palbociclib (first compound 0.3162 µM), 0.215. For the same cell line, the relative viability with RU-SKI 43 + Palbociclib (first compound 1 µM) turned out to be 0.288; in the assay with RU-SKI 43 + Palbociclib (first compound 3.162 µM), 0.238; with RU-SKI 43 + Palbociclib (first compound 10 µM), 0.19; with Irinotecan + Foretinib (first compound 0.6325 µM) it was 0.748; with Irinotecan + Foretinib (first compound 2 µM), 0.326; with Irinotecan + Foretinib (first compound 6.325 µM) it was 0.169. Moreover, the relative viability came to 0.192 in the assay with Irinotecan + Foretinib (first compound 20 µM); 0.442 with Irinotecan + Bortezomib (first compound 0.6325 µM); 0.476 with Irinotecan + Bortezomib (first compound 2 µM); 0.18 in the assay with Irinotecan + Bortezomib (first compound 6.325 µM); 0.248 with Irinotecan + Bortezomib (first compound 20 µM).

Turning to NCI-H2126, the relative viability amounted to 0.632 with Irinotecan + Lapatinib (first compound 2 µM); 0.304 with Irinotecan + Lapatinib (first compound 6.325 µM); 0.357 with Irinotecan + Lapatinib (first compound 20 µM); 0.355 with RU-SKI 43 + Palbociclib (first compound 0.1 µM); 0.37 with RU-SKI 43 + Palbociclib (first compound 0.3162 µM); 0.38 with RU-SKI 43 + Palbociclib (first compound 1 µM). Further, the relative viability with RU-SKI 43 + Palbociclib (first compound 3.162 µM) was 0.355; in the assay with RU-SKI 43 + Palbociclib (first compound 10 µM) it was 0.353; with Irinotecan + Foretinib (first compound 2 µM), 1.18; in the assay with Irinotecan + Foretinib (first compound 6.325 µM), 0.67; with Irinotecan + Foretinib (first compound 20 µM) it was 0.51; with Irinotecan + Bortezomib (first compound 2 µM) it was 1.08. The relative viability stood at 0.632 with Irinotecan + Bortezomib (first compound 6.325 µM) and 0.34 with Irinotecan + Bortezomib (first compound 20 µM).
